Source: ChEMBL document CHEMBL3885861, “Open TG-GATES”

Species on record: Rattus norvegicus
Test: Open TG-GATES - Regimen: Daily Repeat
Assay type: toxicity, organism-based, Sprague-Dawley
Parameters: regimen Daily Repeat, gender Male, age 6 weeks
Settings: in vivo, po, 0 mg/kg, route gavage, dose level Control; for APTT / Bas / Eos / Fbg / Hb / Ht / Lym / MCH / MCHC / MCV / Mono / Neu / PT / Plat / RBC / Ret / WBC: tissue Blood; for KIDNEY_L / KIDNEY_R / KIDNEY_TOTAL: tissue Kidney; for LIVER: tissue Liver; for A/G / ALP / ALT / AST / BUN / CRE / Ca / Cl / DBIL / GLC / IP / K / LDH / Na / PL / RALB / TBIL / TC / TG / TP / gamma-GTP: tissue Plasma

CCCCNC(=O)NS(=O)(=O)c1ccc(C)cc1 [TOLBUTAMIDE]
TERMINAL_BW (72 h, time 3 day): 235.2 g | APTT (72 h, time 3 day): 16.5 s | Bas (72 h, time 3 day): 0.2% | Eos (72 h, time 3 day): 1% | Fbg (72 h, time 3 day): 315.4 mg/dL | Hb (72 h, time 3 day): 14 g/dL | Ht (72 h, time 3 day): 43.2% | Lym (72 h, time 3 day): 74.6% | MCH (72 h, time 3 day): 20.4 pg | MCHC (72 h, time 3 day): 32.4% | MCV (72 h, time 3 day): 63 fL | Mono (72 h, time 3 day): 2.2% | Neu (72 h, time 3 day): 21.6% | PT (72 h, time 3 day): 13 s | Plat (72 h, time 3 day): 112.3 x10_4/uL | RBC (72 h, time 3 day): 686.4 x10_4/ul | Ret (72 h, time 3 day): 6.8% | WBC (72 h, time 3 day): 101.6 x10_2/uL | KIDNEY_L (72 h, time 3 day): 1 g | KIDNEY_R (72 h, time 3 day): 1 g | KIDNEY_TOTAL (72 h, time 3 day): 2 g | LIVER (72 h, time 3 day): 10.6 g | A/G (72 h, time 3 day): 0.9 | ALP (72 h, time 3 day): 1867 IU/L | ALT (72 h, time 3 day): 51 IU/L | AST (72 h, time 3 day): 75.2 IU/L | BUN (72 h, time 3 day): 15 mg/dL | CRE (72 h, time 3 day): 0.2 mg/dL | Ca (72 h, time 3 day): 11.3 mg/dL | Cl (72 h, time 3 day): 105.2 meq/L | DBIL (72 h, time 3 day): 0.014 mg/dL | GLC (72 h, time 3 day): 179 mg/dL | IP (72 h, time 3 day): 8.9 mg/dL | K (72 h, time 3 day): 4.1 meq/L | LDH (72 h, time 3 day): 64.4 IU/L | Na (72 h, time 3 day): 143.6 meq/L | PL (72 h, time 3 day): 149.8 mg/dL | RALB (72 h, time 3 day): 2.7 g/dL | TBIL (72 h, time 3 day): 0.066 mg/dL | TC (72 h, time 3 day): 79 mg/dL | TG (72 h, time 3 day): 79.2 mg/dL | TP (72 h, time 3 day): 5.7 g/dL | gamma-GTP (72 h, time 3 day): 1 IU/L | TERMINAL_BW ([…], time 7 day): 272.6 g | TERMINAL_BW ([…], time 14 day): 338.7 g | TERMINAL_BW ([…], time 28 day): 414.9 g | APTT ([…], time 7 day): 17 s | Bas ([…], time 7 day): 0.4% | Eos ([…], time 7 day): 1% | Fbg ([…], time 7 day): 274.8 mg/dL | Hb ([…], time 7 day): 13.6 g/dL | Ht ([…], time 7 day): 41% | Lym ([…], time 7 day): 80% | MCH ([…], time 7 day): 20.8 pg | MCHC ([…], time 7 day): 33.3% | MCV ([…], time 7 day): 62.4 fL | Mono ([…], time 7 day): 2.6% | Neu ([…], time 7 day): 15.6% | PT ([…], time 7 day): 13 s | Plat ([…], time 7 day): 127.5 x10_4/uL | RBC ([…], time 7 day): 657.4 x10_4/ul | Ret ([…], time 7 day): 5.7% | WBC ([…], time 7 day): 127.9 x10_2/uL | APTT ([…], time 14 day): 17.6 s | Bas ([…], time 14 day): 0.2% | Eos ([…], time 14 day): 1% | Fbg ([…], time 14 day): 284 mg/dL | Hb ([…], time 14 day): 14.4 g/dL | Ht ([…], time 14 day): 43.7% | Lym ([…], time 14 day): 78.4% | MCH ([…], time 14 day): 19.9 pg | MCHC ([…], time 14 day): 32.8% | MCV ([…], time 14 day): 60.7 fL | Mono ([…], time 14 day): 1.8% | Neu ([…], time 14 day): 18% | PT ([…], time 14 day): 13 s | Plat ([…], time 14 day): 124.7 x10_4/uL | RBC ([…], time 14 day): 721.4 x10_4/ul | Ret ([…], time 14 day): 4.4% | WBC ([…], time 14 day): 108 x10_2/uL | APTT ([…], time 28 day): 18.4 s | Bas ([…], time 28 day): 0.2% | Eos ([…], time 28 day): 1% | Fbg ([…], time 28 day): 277 mg/dL | Hb ([…], time 28 day): 15.8 g/dL | Ht ([…], time 28 day): 47.1% | Lym ([…], time 28 day): 80.2% | MCH ([…], time 28 day): 19.4 pg | MCHC ([…], time 28 day): 33.4% | MCV ([…], time 28 day): 58 fL | Mono ([…], time 28 day): 2% | Neu ([…], time 28 day): 16% | PT ([…], time 28 day): 13.6 s | Plat ([…], time 28 day): 107.1 x10_4/uL | RBC ([…], time 28 day): 813.4 x10_4/ul | Ret ([…], time 28 day): 2.3% | WBC ([…], time 28 day): 117.4 x10_2/uL | KIDNEY_L ([…], time 7 day): 1.1 g | KIDNEY_R ([…], time 7 day): 1.1 g | KIDNEY_TOTAL ([…], time 7 day): 2.2 g | KIDNEY_L ([…], time 14 day): 1.2 g | KIDNEY_R ([…], time 14 day): 1.3 g | KIDNEY_TOTAL ([…], time 14 day): 2.5 g | KIDNEY_L ([…], time 28 day): 1.5 g | KIDNEY_R ([…], time 28 day): 1.5 g | KIDNEY_TOTAL ([…], time 28 day): 2.9 g | LIVER ([…], time 7 day): 12.8 g | LIVER ([…], time 14 day): 15.3 g | LIVER ([…], time 28 day): 15.9 g | A/G ([…], time 7 day): 0.9 | ALP ([…], time 7 day): 1890.2 IU/L | ALT ([…], time 7 day): 43.2 IU/L | AST ([…], time 7 day): 69.2 IU/L | BUN ([…], time 7 day): 18.2 mg/dL | CRE ([…], time 7 day): 0.2 mg/dL | Ca ([…], time 7 day): 10.9 mg/dL | Cl ([…], time 7 day): 103.8 meq/L | DBIL ([…], time 7 day): 0.012 mg/dL | GLC ([…], time 7 day): 189.4 mg/dL | IP ([…], time 7 day): 8.1 mg/dL | K ([…], time 7 day): 4.1 meq/L | LDH ([…], time 7 day): 64.8 IU/L | Na ([…], time 7 day): 142.2 meq/L | PL ([…], time 7 day): 148.8 mg/dL | RALB ([…], time 7 day): 2.6 g/dL | TBIL ([…], time 7 day): 0.062 mg/dL | TC ([…], time 7 day): 67.2 mg/dL | TG ([…], time 7 day): 139.8 mg/dL | TP ([…], time 7 day): 5.6 g/dL | gamma-GTP ([…], time 7 day): 0.8 IU/L | A/G ([…], time 14 day): 0.8 | ALP ([…], time 14 day): 1297.4 IU/L | ALT ([…], time 14 day): 37 IU/L | AST ([…], time 14 day): 66.4 IU/L | BUN ([…], time 14 day): 16.6 mg/dL | CRE ([…], time 14 day): 0.2 mg/dL | Ca ([…], time 14 day): 11 mg/dL | Cl ([…], time 14 day): 104.2 meq/L | DBIL ([…], time 14 day): 0.012 mg/dL | GLC ([…], time 14 day): 185.6 mg/dL | IP ([…], time 14 day): 7.1 mg/dL | K ([…], time 14 day): 3.9 meq/L | LDH ([…], time 14 day): 58.8 IU/L | Na ([…], time 14 day): 142.6 meq/L | PL ([…], time 14 day): 149 mg/dL | RALB ([…], time 14 day): 2.7 g/dL | TBIL ([…], time 14 day): 0.056 mg/dL | TC ([…], time 14 day): 72.8 mg/dL | TG ([…], time 14 day): 131.2 mg/dL | TP ([…], time 14 day): 5.8 g/dL | gamma-GTP ([…], time 14 day): 1 IU/L | A/G ([…], time 28 day): 0.8 | ALP ([…], time 28 day): 1151.4 IU/L | ALT ([…], time 28 day): 40.6 IU/L | AST ([…], time 28 day): 62 IU/L | BUN ([…], time 28 day): 17 mg/dL | CRE ([…], time 28 day): 0.3 mg/dL | Ca ([…], time 28 day): 10.8 mg/dL | Cl ([…], time 28 day): 105.2 meq/L | DBIL ([…], time 28 day): 0.014 mg/dL | GLC ([…], time 28 day): 186.6 mg/dL | IP ([…], time 28 day): 6.7 mg/dL | K ([…], time 28 day): 4 meq/L | LDH ([…], time 28 day): 52 IU/L | Na ([…], time 28 day): 143.2 meq/L | PL ([…], time 28 day): 162.4 mg/dL | RALB ([…], time 28 day): 2.8 g/dL | TBIL ([…], time 28 day): 0.062 mg/dL | TC ([…], time 28 day): 78 mg/dL | TG ([…], time 28 day): 170 mg/dL | TP ([…], time 28 day): 6.3 g/dL | gamma-GTP ([…], time 28 day): 1.2 IU/L
